Experimental data published in PubChem BioAssay (NCI).
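Protocol summary: plate cells (96-well), add compound at 5 concentrations, incubate 48 h, interpolate endpoints linearly. GI50 marks 50% less growth. TGI is the concentration that stops growth completely.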

How the values were obtained:
Assay in all cases: NCI anticancer screen, dose series, 48 h
T-47D breast = system: T-47D breast
MALME-3M melanoma = system: MALME-3M melanoma
MCF7 breast = system: MCF7 breast
OVCAR-3 ovarian = system: OVCAR-3 ovarian
U251 CNS = system: U251 CNS
HOP-92 NSCLC = system: HOP-92 NSCLC
NCI-H522 lung = system: NCI-H522 lung
SN12C renal = system: SN12C renal
A549 NSCLC = system: A549 NSCLC
UO-31 renal = system: UO-31 renal

Row | SMILES | GI50 (T-47D breast) | TGI (T-47D breast) | GI50 (MALME-3M melanoma) | TGI (MALME-3M melanoma) | GI50 (MCF7 breast) | TGI (MCF7 breast) | GI50 (OVCAR-3 ovarian) | TGI (OVCAR-3 ovarian) | GI50 (U251 CNS) | TGI (U251 CNS) | GI50 (HOP-92 NSCLC) | TGI (HOP-92 NSCLC) | GI50 (NCI-H522 lung) | TGI (NCI-H522 lung) | GI50 (SN12C renal) | TGI (SN12C renal) | GI50 (A549 NSCLC) | TGI (A549 NSCLC) | GI50 (UO-31 renal) | TGI (UO-31 renal)
1 | COc1cc(NC(=O)CCSc2nc3ccc(C)cc3c(=O)n2Cc2ccccc2)cc(OC)c1OC | 7.04 µM | > 100 µM | 4.73 µM | 43.4 µM | 32 µM | > 100 µM | 5.05 µM | > 100 µM | 7.06 µM | 63.1 µM | 1.9 µM | 7.99 µM | 11.3 µM | 76.7 µM | 78 µM | > 100 µM | 8.08 µM | > 100 µM | 11.6 µM | > 100 µM
2 | C#Cc1nc2ccccc2c(=O)[nH]1 | 1.36 µM | 3.6 µM | 1.23 µM | 3.04 µM | 0.282 µM | 2.75 µM | 0.262 µM | 0.643 µM | 1.66 µM | 4.28 µM | 1.14 µM | 2.61 µM | 0.765 µM | 2.18 µM | 0.331 µM | 1.26 µM | 2.96 µM | 12.9 µM | 0.383 µM | 1.61 µM
3 | Cc1nc(Nc2ccccn2)sc1C(=O)/C=C/c1ccc(Cl)cc1 | 8.68 µM | > 100 µM | 0.734 µM | 43.8 µM | 0.344 µM | > 100 µM | 0.325 µM | 5.48 µM | 0.37 µM | > 47.3 µM | 1.21 µM | 31.4 µM | 0.241 µM |  | 0.547 µM | > 47.4 µM | 0.426 µM | > 100 µM | 0.662 µM | 15 µM
4 | Cn1cc(-c2ccc3nnc(Sc4ccc5ncccc5c4)n3n2)cn1 | 99.3 µM | > 100 µM | > 100 µM | > 100 µM | 97.5 µM | > 100 µM | > 91.4 µM | > 100 µM | 28.5 µM | > 100 µM | 7.07 µM | > 71.4 µM | > 100 µM | > 100 µM | > 73.9 µM | > 100 µM | > 86 µM | > 100 µM | 61.9 µM | > 100 µM
5 | C=C1CCC2(C#N)[C@H]3[C@H](CC[C@@H]2C)[C@@H](C)C[C@@H](CC(C)(C)NC(=O)CN2CCC2=O)[C@H]13 (stereo partly drawn) | 2.49 µM | 9.64 µM | 8.56 µM | 23.9 µM | 4.58 µM | 23.4 µM | 3.72 µM | 15 µM | 4.27 µM | 16.6 µM | 3.12 µM | 27.5 µM | 13.5 µM | 45.6 µM | 11.9 µM | 49.5 µM | 13.3 µM | 50.4 µM | 10.2 µM | 77.1 µM
6 | O=C(Nn1c(-c2ccccc2)nc2ccccc2c1=O)c1ccccc1O |  | > 100 µM |  | > 100 µM |  | > 100 µM |  | > 100 µM |  | > 100 µM |  | > 100 µM |  | > 100 µM |  | > 100 µM |  | > 100 µM |  | > 100 µM
7 | O=C1CCC(N2C(=O)c3ccccc3C2=O)C(=O)N1 (stereo not drawn) |  | > 100 µM |  | > 100 µM |  | > 100 µM | > 100 µM | > 100 µM |  | > 100 µM |  | > 100 µM |  | > 100 µM |  | > 100 µM |  | > 100 µM |  | > 100 µM
8 | CN(C)c1nc2ccccc2c2c1c1c(n2Cc2ccccc2)-c2ccccc2C1=O | 55.6 µM | > 100 µM | > 100 µM | > 100 µM | 71.4 µM | > 100 µM | > 100 µM | > 100 µM | > 100 µM | > 100 µM | 13 µM | > 100 µM | > 100 µM | > 100 µM | > 100 µM | > 100 µM | > 100 µM | > 100 µM | > 100 µM | > 100 µM
9 | CC1=Nc2ccccc2/C1=C\c1c(C)[nH]c2ccccc12 |  | 29.4 µM |  | 30.5 µM |  | 18.3 µM |  | 34.8 µM |  | 33.3 µM |  | 17.4 µM |  | 23.6 µM |  | 72.5 µM |  | 73.6 µM |  | 27.5 µM
10 | C=C1C(=O)OC2CC(C)C3CC(O)OC(OCC)C3(C)CC12 (stereo not drawn) |  | 33.1 µM |  | 23.3 µM |  | 26.7 µM |  | 31.3 µM |  | 33.8 µM |  | 35.1 µM |  | 18.8 µM |  | 33.2 µM |  | > 96.6 µM |  | 53.7 µM
11 | Cc1nc(Nc2cccnc2)sc1C(=O)/C=C/c1ccc(Cl)cc1 | 2.57 µM | 29.4 µM | 3.3 µM | 23.6 µM | 1.92 µM | 10.7 µM | 3.27 µM | 16.2 µM | 1.81 µM | 3.72 µM | 3.23 µM | 15.2 µM | 2.14 µM | 5.33 µM | 2.91 µM | 9.13 µM | 3.32 µM | > 100 µM | 1.81 µM | 4.61 µM
12 | CCN(c1cc(-c2ccc(CN3CCOCC3)cc2)cc(C(=O)NCc2c(C)cc(C)[nH]c2=O)c1C)C1CCOCC1 | 18.9 µM | 53.4 µM | 14.4 µM | 28.9 µM | 24.2 µM | > 100 µM | 25 µM | > 54.6 µM | 26 µM | > 81 µM | 16.8 µM | > 57 µM | 23.6 µM | > 58.5 µM | 26.9 µM | > 64.5 µM | 33.5 µM | > 100 µM | 14.9 µM | > 51.3 µM
13 | CSCCCNC(=O)c1ccc2c(c1)/C(=C/c1[nH]c(C)cc1C)C(=O)N2 | 0.465 µM | > 100 µM | 0.597 µM | > 100 µM | 4.05 µM | > 100 µM | 1.98 µM | > 100 µM | 0.675 µM | > 100 µM | 1.03 µM | > 100 µM | 0.843 µM | > 100 µM | 0.571 µM | > 100 µM | 2.75 µM | > 100 µM | 0.347 µM | > 100 µM
14 | O=C(Nc1ccc(-c2nc(-c3cccc(OCCN4CCOCC4)c3)c(-c3ccnc(Br)c3)[nH]2)cc1)c1ccccc1 | 2.22 µM | > 100 µM | 1.55 µM | 3.85 µM | 0.74 µM | 3.14 µM | 4.27 µM | > 100 µM |  |  | 2.01 µM | 8.16 µM | 3.69 µM | > 100 µM | 6.94 µM | > 100 µM | 2.25 µM | > 100 µM | 2 µM | 5.58 µM
